Assay results taken from patent publication US20060079453A1, “Hla binding peptides and their uses” (priority 2002, published 2006).
pIC50: −log10 of the molar value. No end group written: not given here.

How the values were obtained:
Assay in all cases: biochemical
Assay type in all cases: binding
HLA-DR DRB5*0101 (DR51) = HLA-DR DRB5*0101 (DR51) (Homo sapiens, UniProt P01903+Q30154); conditions: DRB5 *0101
HLA-DR DRB1*0802 (DR8) = HLA-DR DRB1*0802 (DR8) (Homo sapiens, UniProt P01903+P01911, A100R/A103L/A169T/F76Y/H45Y/I96F/K41T/L162R/M171V/P40S/Q125H/Q178H/Q39Y/Q99D/R218S/R42G/S66Y/V115G/W38E)
HLA-DR DRB4*0101 (DR53) = HLA-DR DRB4*0101 (DR53) (Homo sapiens, UniProt P01903+P13762, G164S); conditions: DRB4 *0101
HLA-DR DRB1*1302 (DR13) = HLA-DR DRB1*1302 (DR13) (Homo sapiens, UniProt P01903+P01911, A100E/A169T/K41T/L162R/M171V/P40S/Q125H/Q178H/Q39Y/Q99D/R42S/S66N/T262R/V115G/W38E/Y61H); conditions: DRBI *1302
HLA-DR DRB1*1101 (DR11) = HLA-DR DRB1*1101 (DR11) (Homo sapiens, UniProt P01903+P01911, A100R/A169T/A87E/I96F/K41T/L162R/M171V/P40S/Q125H/Q178H/Q39Y/Q99D/R42S/S66Y/T262R/V115G/W38E); conditions: DRB1 *1101
HLA-DR DRB1*0901 (DR9) = HLA-DR DRB1*0901 (DR9) (Homo sapiens, UniProt P01903+P01911, A100R/A103E/D57H/D86V/F55Y/F60I/F76Y/I96F/K127E/L162R/M171V/P40D/Q125H/Q99R/R33Q/R42F/S133A/S66N/T210M/V115G/W38K/Y107V/Y59G/Y89S); conditions: DRB1 *0901
HLA-DR DRB1*0301 (DR3) = HLA-DR DRB1*0301 (DR3) (Homo sapiens, UniProt P01903+P01911, A100K/A102G/A103R/A169T/F55Y/I96L/K41T/L162R/M171V/P40S/Q125H/Q178H/Q39Y/R42S/S66N/T106N/T262R/W38E/Y61H)
HLA-DR DRB1*0101 (DR1) = HLA-DR DRB1*0101 (DR1) (Homo sapiens, UniProt P01903+P01911, A100R/D57E/F55L/F60I/F76Y/I96L/L162R/M171V/P40L/Q125E/R42F/V115G/Y59C); conditions: DRB1 *0101
HLA-DR DRB1*0405 (DR4) = HLA-DR DRB1*0405 (DR4) (Homo sapiens, UniProt P01903+P01911, A100R/A169T/D86S/F76Y/I96L/K127E/L162R/M171V/N62H/P40V/Q125Y/R42H/S133A/S149N/S66Y/V115G/V209L/W38E); conditions: DRB1 *0405
HLA-DR DRB3*0101 (DR52) = HLA-DR DRB3*0101 (DR52) (Homo sapiens, UniProt P01903+P79483)
HLA-DR DRB1*0401 (DR4) = HLA-DR DRB1*0401 (DR4) (Homo sapiens, UniProt P01903+P01911, A100K/A169T/F76Y/I96L/K127E/L162R/M171V/N62H/P40V/Q125Y/R42H/S133A/S149N/S66Y/V115G/V209L/W38E); conditions: DRB1 *0401
HLA-DR DRB1*0701 (DR7) = HLA-DR DRB1*0701 (DR7) (Homo sapiens, UniProt P01903+P01911, A100R/A102G/A103Q/D57E/D86V/E43K/F76Y/K127E/L162R/M171V/P40G/Q125H/Q99D/R33Q/R42Y/R54Q/S133A/S66F/T210M/V115G/Y107V/Y59L/Y89S); conditions: DRB1 *0701
HLA-DR DRB1*1501 (DR15) = HLA-DR DRB1*1501 (DR15) (Homo sapiens, UniProt P01903+P01911); conditions: DRBI *1501

Sequence of HLA-DR DRB1*1302 (DR13) (P01903 26-254 limits assumed, other chains not shown): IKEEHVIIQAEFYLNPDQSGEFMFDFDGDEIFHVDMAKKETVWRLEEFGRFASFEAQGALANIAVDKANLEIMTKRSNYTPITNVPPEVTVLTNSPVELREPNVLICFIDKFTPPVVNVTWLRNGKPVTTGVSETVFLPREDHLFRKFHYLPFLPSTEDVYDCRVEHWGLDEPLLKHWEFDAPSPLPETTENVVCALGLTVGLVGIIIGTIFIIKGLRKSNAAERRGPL
Sequence of HLA-DR DRB1*0301 (DR3) (P01903 26-254 limits assumed, other chains not shown): as above
Sequence of HLA-DR DRB1*1101 (DR11) (P01903 26-254 limits assumed, other chains not shown): as above

Row | Sequence | pIC50 (HLA-DR DRB5*0101 (DR51)) | pIC50 (HLA-DR DRB1*0802 (DR8)) | pIC50 (HLA-DR DRB4*0101 (DR53)) | pIC50 (HLA-DR DRB1*1302 (DR13)) | pIC50 (HLA-DR DRB1*1101 (DR11)) | pIC50 (HLA-DR DRB1*0901 (DR9)) | pIC50 (HLA-DR DRB1*0301 (DR3)) | pIC50 (HLA-DR DRB1*0101 (DR1)) | pIC50 (HLA-DR DRB1*0405 (DR4)) | pIC50 (HLA-DR DRB3*0101 (DR52)) | pIC50 (HLA-DR DRB1*0401 (DR4)) | pIC50 (HLA-DR DRB1*0701 (DR7)) | pIC50 (HLA-DR DRB1*1501 (DR15))
1 | AVTIYEMLQNIFAIF | 4.85 | 5.16 | 5.95 | 6.96 | 4.53 | 5.34 | 4.62 | 7.77 | 6.79 | 5.55 |  |  | 
2 | EQTTTSITSLYQLEN | 4.31 | < 4.26 | 4.53 |  | < 4.98 | 4.76 | < 3.84 | 4.72 | 6.57 | < 4.73 | 6.77 | 5.65 | 
3 | FLRSVFANSLVYGAS | 6.85 | 4.87 |  | 8.25 | 6.01 | 4.82 |  | 8.37 | 7.23 | 3.80 | 8.17 | 7.80 | 7.89
4 | FTRGKRMSSLHLKRY | 7.08 | 6.26 | 5.69 | 4.99 | 7.09 |  | 5.48 | 7.89 | 6.32 | 4.73 | 5.99 |  | 
5 | FVNQHLCGSDLVEAL [FVNQHLCGSDLVEAL] | < 4.36 | < 4.26 | 4.61 | 4.69 | < 2.95 | < 4.20 | < 4.13 | 6.93 | 4.83 | 5.00 | 4.72 |  | 
6 | GSHLVEALYLVTGER | 4.94 | < 4.26 | 6.65 | 4.91 | < 4.98 | < 4.20 | < 3.75 | 6.19 | 4.84 | 4.74 | 4.80 | 6.26 | 
7 | HLKRYYGRILHYLKA | 8.64 | 6.63 | 7.66 | 6.06 |  | 5.54 | 5.43 | 7.59 | 7.07 | 5.18 |  | 6.67 | 9.16
8 | KLSQELHKLQTYPRT | 7.43 | 4.54 | 6.06 | < 4.90 | 5.62 | 4.72 | 3.71 | 7.72 | 4.91 | < 3.58 | 4.71 | 4.07 | 
9 | LFFYRKSVWSKLQSI | 7.74 | 7.19 | 5.71 | 6.92 | 7.92 |  | 4.52 | 7.72 | 7.08 | 5.23 | 6.04 | 7.08 | 7.70
10 | LGFLQRSSNCQSQKL | 6.29 | 6.39 | 6.91 | 6.88 | 6.22 |  | 5.31 |  | 6.64 | < 2.76 | 8.09 | 6.52 | 
11 | LYFVKVDVTGAYDTI | 5.30 | 6.38 | 7.66 | 7.10 | 6.66 |  | 8.02 | 7.80 | 7.85 | 7.80 | 8.55 | 5.23 | 5.01
12 | QCQKLLWQLNGRLEY | 6.03 | 5.60 | 6.68 |  | 5.78 | 5.33 | 3.87 |  | 6.00 | 5.06 | 6.44 | 5.43 | 
13 | QTQKLLWQLNGRLEY |  | 5.69 | 7.06 | 6.92 | 4.68 |  | 5.45 | 7.49 | 7.07 | 5.18 | 7.26 | 5.51 | 7.70
14 | RMSSLHLKRYYGRIL | 6.31 | 6.56 | 5.65 | 5.60 | 5.99 | 4.82 |  | 6.56 | 7.47 | < 4.58 | 6.00 | 6.55 | 8.89
15 | RPIVNMDYVVGARTFRREKR | 8.18 | 6.13 | 6.80 | 7.14 |  |  | 7.66 | 7.54 | 6.09 | 5.48 | 8.51 | 6.46 | 7.37
16 | RSSNCQSQKLLWQLN |  | 5.16 | 7.57 | 5.71 | < 4.22 |  | 4.24 | 5.69 | 5.40 | 4.16 | 6.23 |  | 5.53
17 | RTGQIFKQTYSKFDT | 7.19 | 4.78 | 6.70 | 7.18 | 5.16 |  | 4.69 | 5.81 | 7.40 | 4.83 | 5.77 | 7.34 | 6.81
18 | SFLQNPQTSLTFSES |  | < 4.48 |  | 6.92 | < 4.81 |  | 5.62 |  | 5.02 | 6.06 | 5.11 | 5.21 | 5.82
19 | SNLELLRICLLLIQS | < 4.93 | 4.70 | 6.79 | 6.11 | < 4.81 |  | 4.21 |  | 5.95 | 4.77 |  | 5.91 | 7.05
20 | SWLEPVQFLRSVFAN | 5.32 | 5.47 |  | 5.36 |  | 5.40 | 3.78 | 7.96 | 6.05 | < 3.57 |  | 6.23 | 
21 | TSLTFSESIPTPSNR | < 5.87 | 4.75 | 5.46 | 7.80 | 4.65 | 5.61 | 4.76 |  | 6.16 | < 4.02 | 7.74 |  | 
22 | VEALYLVTGERGFFY | 7.11 | 5.91 | 7.89 |  | 5.31 | 6.17 | 5.70 | 8.00 | 5.63 | 4.77 | 7.22 | 6.71 | 
23 | YLVCGERGFFYTDKT | < 4.55 | < 4.26 | 4.32 | 5.99 | < 4.22 |  | 4.93 |  | < 4.52 | 6.21 | < 4.69 | 4.03 | < 4.59
24 | YLVTGERGFFYTDKT | < 4.55 | < 4.59 | 4.51 | 4.76 | 4.77 | 5.54 |  | 5.49 | < 4.52 | 6.44 | < 4.69 |  | < 4.59
